# Assay results reported in patent US9255295B2, “Method for evaluating the sensitizing potential of a test compound” (IMMUNOSEARCH, priority 2010, dated 2016).
# “And” between values parts separate entries of the source, which are not always exact repeats. Identical values can stand only once. Like-named read-outs stand apart in the source and are kept apart here.
# What was measured:
# [1] = test system: ARE gene family (AKR1B10, AKR1C1, AKR1C2, CYP1B1, FTH1P, FTL, G6PD, GCLM, NQO2, SLC7A11, TXNRD1, UGT1A1, UGT1A9, YWHAZ, CD36, CYP1A1, GCLC, HMOX1, NQO1, PSME2 …)
# [2] = test system: genes specific for sensitization (BRAK, CTSS, DAPK2, FABP4, HSP27, IL18, HSP90, IL1R2, TPSAB1, CXCR1, DEFB1, DHFR, EHF, IVL, KRT4, MELANA, NGAL, PDZK1IP1, PI3 …); experiment: Expression of the other (non-ARE) sensitization-specific genes in EPISKIN reconstructed skin (quantitative RT-PCR); format: cell-based, human
smiles,measurement,setting,value
Nc1ccccc1O [2-aminophenol],CYP1A1 expression compared to control,[1]; 10%,122.0
same,CYP1A1 grade (NUMBER OF GENES),[1]; 10%,"1 (If the expression is greater than 1.3 compared to the control, a grade of 11s given)"
same,CYP1B1 expression compared to control,[1]; 10%,45.1
same,CYP1B1 grade (NUMBER OF GENES),[1]; 10%,"1 (If the expression is greater than 1.3 compared to the control, a grade of 11s given)"
same,FTH1P expression compared to control,[1]; 10%,1.5
same,FTH1P grade (NUMBER OF GENES),[1]; 10%,"1 (If the expression is greater than 1.3 compared to the control, a grade of 11s given)"
same,FTL expression compared to control,[1]; 10%,2.5
same,FTL grade (NUMBER OF GENES),[1]; 10%,"1 (If the expression is greater than 1.3 compared to the control, a grade of 11s given)"
same,GCLC expression compared to control,[1]; 10%,2.3
same,GCLC grade (NUMBER OF GENES),[1]; 10%,"1 (If the expression is greater than 1.3 compared to the control, a grade of 11s given)"
same,GCLM expression compared to control,[1]; 10%,4.6
same,GCLM grade (NUMBER OF GENES),[1]; 10%,"1 (If the expression is greater than 1.3 compared to the control, a grade of 11s given)"
same,HMOX1 expression compared to control,[1]; 10%,1.7
same,HMOX1 grade (NUMBER OF GENES),[1]; 10%,"1 (If the expression is greater than 1.3 compared to the control, a grade of 11s given)"
same,NQO1 expression compared to control,[1]; 10%,2.5
same,NQO1 grade (NUMBER OF GENES),[1]; 10%,"1 (If the expression is greater than 1.3 compared to the control, a grade of 11s given)"
same,NQO2 expression compared to control,[1]; 10%,1.4
same,NQO2 grade (NUMBER OF GENES),[1]; 10%,"1 (If the expression is greater than 1.3 compared to the control, a grade of 11s given)"
same,S100A8 expression compared to control,[1]; 10%,1.2
same,S100A8 grade (NUMBER OF GENES),[1]; 10%,"0 (if this expression is lower, the grade is 0)"
same,SLC7A11 expression compared to control,[1]; 10%,3.8
same,SLC7A11 grade (NUMBER OF GENES),[1]; 10%,"1 (If the expression is greater than 1.3 compared to the control, a grade of 11s given)"
same,TOTAL ARE (NUMBER OF GENES),[1]; 10%,14
same,TXNRD1 expression compared to control,[1]; 10%,7.6
same,TXNRD1 grade (NUMBER OF GENES),[1]; 10%,"1 (If the expression is greater than 1.3 compared to the control, a grade of 11s given)"
same,UGT1A1 expression compared to control,[1]; 10%,1.8
same,UGT1A1 grade (NUMBER OF GENES),[1]; 10%,"1 (If the expression is greater than 1.3 compared to the control, a grade of 11s given)"
same,UGT1A9 expression compared to control,[1]; 10%,1.2
same,UGT1A9 grade (NUMBER OF GENES),[1]; 10%,"0 (if this expression is lower, the grade is 0)"
same,AHR expression compared to control,[1]; 50%,1.3
same,AHR grade (NUMBER OF GENES),[1]; 50%,"0 (if this expression is lower, the grade is 0)"
same,AKR1B10 expression compared to control,[1]; 50%,1.3
same,AKR1B10 grade (NUMBER OF GENES),[1]; 50%,"1 (If the expression is greater than 1.3 compared to the control, a grade of 11s given)"
same,AKR1C1 expression compared to control,[1]; 50%,8.6
same,AKR1C1 grade (NUMBER OF GENES),[1]; 50%,"1 (If the expression is greater than 1.3 compared to the control, a grade of 11s given)"
same,AKR1C2 expression compared to control,[1]; 50%,3.3
same,AKR1C2 grade (NUMBER OF GENES),[1]; 50%,"1 (If the expression is greater than 1.3 compared to the control, a grade of 11s given)"
same,ARE >1.3 (NUMBER OF GENES),[1]; 50%,14
same,CD36 expression compared to control,[1]; 50%,0.7
same,CD36 grade (NUMBER OF GENES),[1]; 50%,"0 (if this expression is lower, the grade is 0)"
same,CYP1A1 expression compared to control,[1]; 50%,66.5
same,CYP1A1 grade (NUMBER OF GENES),[1]; 50%,"1 (If the expression is greater than 1.3 compared to the control, a grade of 11s given)"
same,CYP1B1 expression compared to control,[1]; 50%,37.7
same,CYP1B1 grade (NUMBER OF GENES),[1]; 50%,"1 (If the expression is greater than 1.3 compared to the control, a grade of 11s given)"
same,FTH1P expression compared to control,[1]; 50%,2.0
same,FTH1P grade (NUMBER OF GENES),[1]; 50%,"1 (If the expression is greater than 1.3 compared to the control, a grade of 11s given)"
same,FTL expression compared to control,[1]; 50%,3.5
same,FTL grade (NUMBER OF GENES),[1]; 50%,"1 (If the expression is greater than 1.3 compared to the control, a grade of 11s given)"
same,GCLC expression compared to control,[1]; 50%,4.0
same,GCLC grade (NUMBER OF GENES),[1]; 50%,"1 (If the expression is greater than 1.3 compared to the control, a grade of 11s given)"
same,GCLM expression compared to control,[1]; 50%,4.7
same,GCLM grade (NUMBER OF GENES),[1]; 50%,"1 (If the expression is greater than 1.3 compared to the control, a grade of 11s given)"
same,HMOX1 expression compared to control,[1]; 50%,1.9
same,HMOX1 grade (NUMBER OF GENES),[1]; 50%,"1 (If the expression is greater than 1.3 compared to the control, a grade of 11s given)"
same,NQO1 expression compared to control,[1]; 50%,3.3
same,NQO1 grade (NUMBER OF GENES),[1]; 50%,"1 (If the expression is greater than 1.3 compared to the control, a grade of 11s given)"
same,NQO2 expression compared to control,[1]; 50%,1.3
same,NQO2 grade (NUMBER OF GENES),[1]; 50%,"0 (if this expression is lower, the grade is 0)"
same,S100A8 expression compared to control,[1]; 50%,1.3
same,S100A8 grade (NUMBER OF GENES),[1]; 50%,"1 (If the expression is greater than 1.3 compared to the control, a grade of 11s given)"
same,SLC7A11 expression compared to control,[1]; 50%,6.0
same,SLC7A11 grade (NUMBER OF GENES),[1]; 50%,"1 (If the expression is greater than 1.3 compared to the control, a grade of 11s given)"
same,TOTAL ARE (NUMBER OF GENES),[1]; 50%,14
same,TXNRD1 expression compared to control,[1]; 50%,6.4
same,TXNRD1 grade (NUMBER OF GENES),[1]; 50%,"1 (If the expression is greater than 1.3 compared to the control, a grade of 11s given)"
same,UGT1A1 expression compared to control,[1]; 50%,2.1
same,UGT1A1 grade (NUMBER OF GENES),[1]; 50%,"1 (If the expression is greater than 1.3 compared to the control, a grade of 11s given)"
same,UGT1A9 expression compared to control,[1]; 50%,0.4
same,UGT1A9 grade (NUMBER OF GENES),[1]; 50%,"0 (if this expression is lower, the grade is 0)"
same,BRAK grade (NUMBER OF GENES),[2],"0 (key: If the expression is greater than 1.3 compared to the control, a grade of 11s given; if this expression is lower, the grade is 0)"
same,CTSS expression compared to control,[2],1.3 and 1.2 and 1.4
same,DAPK2 expression compared to control,[2],1.0 and 0.9
same,DAPK2 grade (NUMBER OF GENES),[2],"0 (key: If the expression is greater than 1.3 compared to the control, a grade of 11s given; if this expression is lower, the grade is 0)"
same,DEFB1 expression compared to control,[2],1.9 and 1.8 and 1.4 and 1.1
same,DHFR expression compared to control,[2],0.9 and 1.2
same,DHFR grade (NUMBER OF GENES),[2],"0 (key: If the expression is greater than 1.3 compared to the control, a grade of 11s given; if this expression is lower, the grade is 0)"
same,EHF expression compared to control,[2],1.7 and 1.5 and 1.4 and 1.2
same,FABP4 expression compared to control,[2],1.1 and 0.7 and 0.9
same,FABP4 grade (NUMBER OF GENES),[2],"0 (key: If the expression is greater than 1.3 compared to the control, a grade of 11s given; if this expression is lower, the grade is 0)"
same,HSP27 expression compared to control,[2],1.0 and 1.1 and 0.8
same,HSP27 grade (NUMBER OF GENES),[2],"0 (key: If the expression is greater than 1.3 compared to the control, a grade of 11s given; if this expression is lower, the grade is 0)"
same,HSP90 expression compared to control,[2],1.5 and 1.2 and 1.0
same,IL18 expression compared to control,[2],0.9 and 0.8 and 1.1
same,IL18 grade (NUMBER OF GENES),[2],"0 (key: If the expression is greater than 1.3 compared to the control, a grade of 11s given; if this expression is lower, the grade is 0)"
same,IVL expression compared to control,[2],1.8 and 1.3 and 0.9
same,KRT4 expression compared to control,[2],1.7 and 1.1
same,MELANA grade (NUMBER OF GENES),[2],"0 (key: If the expression is greater than 1.3 compared to the control, a grade of 11s given; if this expression is lower, the grade is 0)"
same,NGAL expression compared to control,[2],1.8 and 1.9 and 1.5 and 1.1
same,P13 expression compared to control,[2],1.5 and 1.4 and 1.2 and 1.3
same,PDZK1iP1 expression compared to control,[2],1.0
same,PDZK1iP1 grade (NUMBER OF GENES),[2],"0 (key: If the expression is greater than 1.3 compared to the control, a grade of 11s given; if this expression is lower, the grade is 0)"
same,SERPINB3 expression compared to control,[2],1.4 and 1.2 and 1.3
